Assay results taken from US9682033B2, “Methods of treating postherpetic neuralgia with a topical formulation of a spiro-oxindole compound” (Teva Pharmaceuticals International GmbH, priority 2015, dated 2017).
Several values for one entry are separate records, joined by “and”; a condition that tells them apart may be missing. Equal entries are not always repeated. Entries after “also recorded” stand apart in the source; their conditions may differ. Where two headings read alike, the source gives them in different places.

Assays:
[1] = test system: complete Freund's adjuvant (CFA) model of inflammatory pain; assay: Complete Freund's adjuvant (CFA) model of inflammatory pain; format: in vivo; conditions: rat, topical
[2] = test system: streptozotocin-induced neuropathic pain model; assay: Streptozotocin-induced neuropathic pain model, mechanical allodynia (paw withdrawal threshold); format: in vivo, rats; conditions: topical, diabetic neuropathic pain model
Text: Topical 4% Test Pharmaceutical Composition was compared with lidocaine and diclofenac for relief of mechanical allodynia in the streptozotocin-induced neuropathic pain model in rats.

[3] = Protein binding in rat serum; format: in vitro ADME
[4] = Protein binding in dog plasma; format: in vitro ADME
[5] = Protein binding in human plasma; format: in vitro ADME
human hepatocytes = assay: In vitro metabolic stability in hepatocytes (human); format: in vitro ADME; conditions: ^14C-spiro-oxindole compound
Text: (§1) A total of 8 metabolites were identified in samples (in vitro and in vivo) from rats, dogs, and humans. All metabolites found in humans were also found in the Good Laboratory Practice (GLP) toxicology species, the rat. Following oral administration of spiro-oxindole compound to humans, spiro-oxindole compound and 3 of its metabolites (M1, M5, and M6) were measurable. A similar metabolic profile was observed following topical administration to humans, albeit at much lower plasma concentrations, except metabolite M1 was not detected following human topical administration.

dog hepatocytes = assay: In vitro metabolic stability in hepatocytes (dog); format: in vitro ADME; conditions: ^14C-spiro-oxindole compound
Text: as §1

minipig hepatocytes = assay: In vitro metabolic stability in hepatocytes (minipig); format: in vitro ADME; conditions: ^14C-spiro-oxindole compound
Text: as §1

rat hepatocytes = assay: In vitro metabolic stability in hepatocytes (rat); format: in vitro ADME; conditions: ^14C-spiro-oxindole compound
Text: as §1

[6] = Metabolite identification in samples (in vitro and in vivo); format: in vitro ADME; conditions: samples (in vitro and in vivo) from rats, dogs, and humans
Text: as §1

[7] = ADME study in the minipig after repeated daily dermal dosing (Biological Example 1); format: in vivo, Göttingen minipig; conditions: for mean tissue radioactivity concentration / total radioactivity in tissue: 24 h after [^14C] dermal dose
Text: On the day prior to the first dermal dose, the dorsum and flanks of each animal were carefully clipped using electric clippers and shaved using an electric rotary head shaver (Phillips). Clipping and shaving was as close as possible to the skin, whilst avoiding damage to the dose site. […] The corners of the treatment area (equivalent to about 6% body surface area, 11 cm×19 cm-12 cm×22 cm) were marked using an indelible pen. The process of hair removal was repeated periodically during the dose administration period as necessary.

CYP450 2C19 (CYP2C19) = CYP450 2C19 (CYP2C19) (Homo sapiens, UniProt P33261); assay: Reaction phenotyping with recombinant human CYP450 enzymes: CYP2C19; format: in vitro ADME
CYP450 2C19 (CYP2C19), sequence (P33261 whole entry): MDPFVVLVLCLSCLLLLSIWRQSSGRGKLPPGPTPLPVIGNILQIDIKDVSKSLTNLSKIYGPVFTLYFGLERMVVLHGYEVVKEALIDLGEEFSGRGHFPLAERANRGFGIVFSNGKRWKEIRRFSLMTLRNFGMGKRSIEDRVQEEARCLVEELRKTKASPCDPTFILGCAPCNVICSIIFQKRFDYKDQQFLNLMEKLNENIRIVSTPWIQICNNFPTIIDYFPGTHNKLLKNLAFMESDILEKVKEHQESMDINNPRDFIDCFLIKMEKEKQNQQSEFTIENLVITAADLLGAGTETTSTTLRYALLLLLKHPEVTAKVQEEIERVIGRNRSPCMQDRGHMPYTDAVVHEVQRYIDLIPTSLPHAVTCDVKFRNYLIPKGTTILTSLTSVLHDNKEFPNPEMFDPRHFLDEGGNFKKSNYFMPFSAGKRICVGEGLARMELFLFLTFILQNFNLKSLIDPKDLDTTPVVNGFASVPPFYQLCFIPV

3A4 (CYP3A4) = 3A4 (CYP3A4) (Homo sapiens, UniProt P08684); assay: Reaction phenotyping with recombinant human CYP450 enzymes: CYP3A4; format: in vitro ADME
3A4 (CYP3A4), sequence (P08684 whole entry): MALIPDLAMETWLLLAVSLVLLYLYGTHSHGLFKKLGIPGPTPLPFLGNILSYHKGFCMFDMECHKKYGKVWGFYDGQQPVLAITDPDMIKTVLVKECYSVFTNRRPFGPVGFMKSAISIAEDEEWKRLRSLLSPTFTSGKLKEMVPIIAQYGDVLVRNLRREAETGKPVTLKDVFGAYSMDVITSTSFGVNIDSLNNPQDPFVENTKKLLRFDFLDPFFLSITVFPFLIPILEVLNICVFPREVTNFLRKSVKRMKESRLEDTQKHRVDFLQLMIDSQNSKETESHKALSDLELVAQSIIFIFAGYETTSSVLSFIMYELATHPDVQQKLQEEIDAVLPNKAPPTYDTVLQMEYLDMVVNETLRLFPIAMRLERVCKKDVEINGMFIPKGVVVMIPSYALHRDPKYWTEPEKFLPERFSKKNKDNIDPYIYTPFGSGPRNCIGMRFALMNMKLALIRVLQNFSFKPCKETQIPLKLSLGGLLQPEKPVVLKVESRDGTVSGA

CYP450 2D6 = CYP450 2D6 (Homo sapiens, UniProt P10635); assay: Reaction phenotyping with recombinant human CYP450 enzymes: CYP2D6; format: in vitro ADME; conditions: recombinant human CYP450 2D6
CYP450 2D6, sequence (P10635 whole entry): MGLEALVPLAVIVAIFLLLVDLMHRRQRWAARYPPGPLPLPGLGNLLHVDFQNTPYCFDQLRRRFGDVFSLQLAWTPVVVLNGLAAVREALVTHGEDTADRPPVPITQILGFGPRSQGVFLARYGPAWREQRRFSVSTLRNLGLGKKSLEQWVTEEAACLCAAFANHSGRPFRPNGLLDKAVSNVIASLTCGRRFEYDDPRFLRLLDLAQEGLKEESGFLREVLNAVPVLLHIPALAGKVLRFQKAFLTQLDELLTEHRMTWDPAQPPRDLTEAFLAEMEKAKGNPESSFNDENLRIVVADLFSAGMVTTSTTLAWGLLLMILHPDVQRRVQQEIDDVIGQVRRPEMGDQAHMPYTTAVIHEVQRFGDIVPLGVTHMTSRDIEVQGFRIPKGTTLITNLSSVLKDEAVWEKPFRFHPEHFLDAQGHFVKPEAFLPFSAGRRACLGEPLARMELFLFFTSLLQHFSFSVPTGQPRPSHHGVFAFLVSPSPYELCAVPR

CYP450 2C9 = CYP450 2C9 (Homo sapiens, UniProt P11712); assay: Reaction phenotyping with recombinant human CYP450 enzymes: CYP2C9; format: in vitro ADME; conditions: recombinant human CYP450 2C9
CYP450 2C9, sequence (P11712 whole entry): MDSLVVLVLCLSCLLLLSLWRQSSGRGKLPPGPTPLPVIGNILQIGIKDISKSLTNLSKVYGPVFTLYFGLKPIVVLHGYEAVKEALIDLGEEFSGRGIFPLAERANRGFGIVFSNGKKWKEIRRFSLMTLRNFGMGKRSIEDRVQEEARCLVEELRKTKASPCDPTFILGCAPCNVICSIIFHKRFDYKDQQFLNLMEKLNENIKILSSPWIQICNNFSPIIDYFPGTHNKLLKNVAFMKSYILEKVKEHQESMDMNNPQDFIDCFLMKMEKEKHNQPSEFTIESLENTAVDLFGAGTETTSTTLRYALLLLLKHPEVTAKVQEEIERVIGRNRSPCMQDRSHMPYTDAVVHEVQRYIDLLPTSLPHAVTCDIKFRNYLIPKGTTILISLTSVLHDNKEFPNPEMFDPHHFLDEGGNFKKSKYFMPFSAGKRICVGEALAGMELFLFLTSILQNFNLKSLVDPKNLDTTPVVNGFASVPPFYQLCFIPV

[8] = test system: several CYP450 enzymes including CYP3A4; assay: In vitro CYP450 inhibition (human liver microsomes); format: in vitro ADME
Text: However, the compound is also highly bound to constituents in human plasma, so distribution into hepatocytes may be hindered, reducing the inhibition potential. In vitro data using human cryopreserved hepatocytes have also shown that the spiro-oxindole compound metabolite (M3) is an inhibitor of CYP3A4 and CYP2C19. Therefore, certain medications that undergo major metabolism by CYP3A4 and CYP2C19 are excluded as concomitant medications during this study.

CYP3A4 [9] = assay: In vitro CYP3A4 induction; format: in vitro ADME
CYP3A4 [10] = assay: Drug-drug interaction study in dogs, oral spiro-oxindole compound with iv midazolam as CYP3A4 substrate; format: in vivo; conditions: oral administration
[11] = 4-week (GLP) repeat-dose dermal toxicity study in minipigs; conditions: minipig, in vivo, topical or ocular, 30 mg/kg/day dermal, day 28; for AUC(0-t): read-out: AUC0-24 h
Method: Repeat-dose dermal toxicity of a pharmaceutical composition comprising the spiro-oxindole compound was evaluated in minipigs in a 7-day (non-GLP) dermal study and in a 4-week (GLP) dermal study with a 2-week recovery period. In addition, a dose range-finding (DRF) dermal study in minipigs was conducted to aid in dose selection for a 39-week dermal toxicity study in minipigs.
However, the vehicle ointment produced in all treatment groups transient, mild to moderate, and occasionally severe dermal irritation that returned to normal during the recovery period. This correlated with minimal epidermal hyperplasia observed microscopically in the treated skin across all groups.

[12] = test system: cultured human lymphocytes; assay: In vitro chromosome aberration assay in cultured human lymphocytes (GLP); format: cell-based
Text: (§2) The spiro-oxindole compound was not genotoxic in the standard battery of genotoxicity tests (GLP), including a bacterial reverse mutation assay, an in vitro chromosome aberration assay in cultured human lymphocytes, and an in vivo rat bone marrow micronucleus test.

rat bone marrow = assay: In vivo rat bone marrow micronucleus test (GLP)
Text: as §2

[13] = Mouse local lymph node assay; format: in vivo
[14] = Phototoxicity assays (in vitro or in vivo)
[15] = test system: CCI model of neuropathic pain; assay: Chronic constriction injury (CCI) model of neuropathic pain; conditions: rat, in vivo

O=C1N(Cc2ccc(C(F)(F)F)o2)c2ccccc2[C@]12COc1cc3c(cc12)OCO3 [spiro-oxindole compound, (S)-1′-{[5-(trifluoromethyl)furan-2-yl]methyl}spiro[furo[2,3-f][1,3]benzodioxole-7,3′-indol]-2′(1′H)-one]
minimum effective dose associated with pain relief [1]: 2 % (w/w)
efficacy compared with 5% lidocaine [2]: superior efficacy to 5% lidocaine
protein bound [3]: 99.6%
protein bound [4]: 98.3%
protein bound [5]: 99.4%
in vitro metabolic stability in hepatocytes (human hepatocytes): 80%
in vitro metabolic stability in hepatocytes (dog hepatocytes): 61%
in vitro metabolic stability in hepatocytes (minipig hepatocytes): 18%
in vitro metabolic stability in hepatocytes (rat hepatocytes): 16%
total number of metabolites identified [6]: 8 metabolites
Cmax ([7]; male, Göttingen, minipig, plasma, topical or ocular, 70 mg ointment/kg, minipigs, 21 days of repeated dermal dosing, read-out: mean maximum observed concentration (Cmax) in plasma): 15 ng/mL
mean tissue radioactivity concentration ([7]; minipig, bone marrow): 154 ng equivalents spiro-oxindole compound/g
mean tissue radioactivity concentration ([7]; minipig, fat (abdominal / white)): 273 ng equivalents spiro-oxindole compound/g
mean tissue radioactivity concentration ([7]; minipig, fat (brown)): 100 ng equivalents spiro-oxindole compound/g
mean tissue radioactivity concentration ([7]; minipig, gall bladder contents): 4870 ng equivalents spiro-oxindole compound/g
total radioactivity in tissue ([7]; minipig, heart): 18.5 ng equiv spiro-oxindole compound/g
total radioactivity in tissue ([7]; minipig, liver): 74.9 ng equiv spiro-oxindole compound/g
mean tissue radioactivity concentration ([7]; minipig, muscle underlying the dose site): 142 ng equivalents spiro-oxindole compound/g
mean tissue radioactivity concentration ([7]; minipig, skin from the dose site): 25500 ng equivalents spiro-oxindole compound/g
mean tissue radioactivity concentration ([7]; minipig, skin remote from the dose site): 111 ng equivalents spiro-oxindole compound/g
systemic exposure (in words) ([7]; minipigs, repeated daily dermal dosing of 8% ointment): low systemic exposure
contribution to spiro-oxindole compound metabolism (CYP450 2C19 (CYP2C19)): major contributors
contribution to spiro-oxindole compound metabolism (3A4 (CYP3A4)): major contributors
contribution to spiro-oxindole compound metabolism (CYP450 2D6): likely to play a less extensive role
contribution to spiro-oxindole compound metabolism (CYP450 2C9): limited or no involvement
inhibition of CYP450 enzymes [8]: may inhibit several CYP450 enzymes including CYP3A4; also recorded: inhibitor of several CYP450 enzymes
induction of CYP3A4 (CYP3A4 [9]): may also be a strong inducer of CYP3A4 with an activation potency similar to rifampicin
spiro-oxindole compound plasma concentrations without evidence of a DDI (CYP3A4 [10]): up to 752 ng/mL and ≤ 1.8 μM
drug-drug interaction with iv midazolam (CYP3A4 substrate) (CYP3A4 [10]; plasma concentrations up to 752 ng/mL (i.e., 1.8 μM)): no evidence of a DDI
Cmax ([11]; female minipigs): 20 ng/mL
AUC(0-t) ([11]; female minipigs): 382 ng·h/mL
Cmax ([11]; male minipigs): 21 ng/mL
AUC(0-t) ([11]; male minipigs): 365 ng·h/mL
genotoxicity [12]: not genotoxic
genotoxicity (rat bone marrow): not genotoxic
skin sensitization [13]: not a skin sensitizer
phototoxicity potential [14]: did not show phototoxicity potential
efficacy compared with gabapentin [15]: comparable efficacy to gabapentin
